Reference: patent US20240108702A1, “Use Of Naturally Occurring Cyclic Peptides For Treatment Of SARS-COV-2 Infection” (The University of Southern California, priority 2021, published 2024)
Where a SMILES comes first, the peptide text is derived from it. Bridges are numbered along the chain shown (N, C = ends).

Assay: Single i.v. bolus PK in a vervet monkey (pilot safety study)
Format: in vivo, vervet/African green monkey (Chlorocebus aethiops sabaeus)
Details: single 3 mg/kg i.v. bolus
Experimental: Vervet monkey studies: As a pilot safety study, a single dose of Peptide 1 (SEQ ID NO. 1) at 3 mg/kg was administered to an adult male vervet/African green monkey (Chlorocebus aethiops sabaeus) via i.v. bolus. Serial blood samples were collected at 0.5, 1, 4, 8, 24, 48, 72, 96, 120, and 192 h post-administration.
Bioanalytical analysis: Clarified plasma samples from mice were directly diluted into 5% formic acid/5% acetonitrile. Quantitative analysis of Peptide 1 (SEQ ID NO. 1) was performed by LC-MS/MS with reverse-phase liquid chromatography (XBridge™ BEH phenyl 3.5 μm 3×100 mm column, Waters #186003328) on an Acquity™ H-Class UPLC (Waters) coupled to a Xevo™ TQ-S tandem electrospray mass spectrometry running MassLynx™ V4.1 (Waters). Quantitative mass spectroscopy was performed by multiple-reaction monitoring transition 417.32>517.21, with the area under the curve determined by TargetLynx™ (Waters). A synthetic theta defensin-like peptide was used as an internal standard (IS). The lower limit of quantification (LLOQ) of the assay was 1 ng/mL. Intra- and inter-assay precision (percent coefficient of variation [CV]) was ≤3%, and intra and interassay accuracy (% relative error) was ≤5%. Plasma Peptide 1 (SEQ ID NO. 1) concentration analyses for rats and cynomolgus monkey studies were performed at MicroConstants (San Diego, CA) by HPLC using a Mac-Mod™ Analytical ACE C4 column. The mobile phase was nebulized using heated nitrogen in Z-Spray source/interface set to electrospray positive ionization mode, and the compound was detected using MS/MS (LLOQ=10.0 ng/mL). Details of the method are summarized in the MicroConstants method No. MN20038. Clarified plasma samples from a serially sampled vervet were quantified by ultra-performance liquid chromatography Waters Acquity H-Class UPLC. […] Peptide 1 (SEQ ID NO. 1) peak and mass confirmation was performed on post PDA eluent using a Micromass Quattro Ultima™ mass spectrometer with MassLynx™ 4.1 (Waters). The lower limit of quantitation (LLOQ) ranged from 10-30 ng/mL (determined by sample background) to an upper limit of 50 ug/mL. RTD-2 (10 ug/mL) was used as an internal standard. Intra- and interassay precision (% coefficient of variation [CV]) was ≤3%, and intra and interassay accuracy (% relative error) was ≤5%.
Pharmacokinetic analysis: Non-compartmental analysis (NCA) was performed using Phoenix WinNonlin™ (version 8.3.1, Certara USA, Inc.; Princeton NJ) to determine the PK parameters in mice, rats, cynomolgus monkeys, and the vervet. Nominal sampling times were used in the analysis, and data below the lower limit of quantification of the assay were excluded from the analysis. The maximum plasma concentration (Cmax) was determined from visual inspection of the data. In addition, the following parameters were calculated: terminal elimination rate constant (λz), area under the curve extrapolated to infinity (AUC0-∞), area under the curve to dosing interval (AUCτ), mean residence time (MRT), clearance (CL), and volume of distribution at steady state (Vss). AUC was calculated using the linear up, log down method, and the λz was calculated using up to the last four data points of the log-linear terminal phase of the concentration-time profile. Due to sparsely sampled data in mice and rats, the sparse sampling calculation methodology in Phoenix WinNonlin™ was used, which generated a single estimate without standard error for all parameters, except for Cmax. For rats and cynomolgus monkeys, all parameters were calculated using sampling times relative to the beginning of the i.v. infusion.

SMILES: CC[C@H](C)[C@@H]1NC(=O)[C@@H]2CSSC[C@H](NC(=O)[C@H](CCCNC(=N)N)NC(=O)[C@@H]3CSSC[C@H](NC1=O)C(=O)N[C@@H]([C@@H](C)O)C(=O)N[C@@H](CCCNC(=N)N)C(=O)NCC(=O)N[C@@H](Cc1ccccc1)C(=O)N3)C(=O)N[C@@H](CC(C)C)C(=O)N[C@H]1CSSC[C@H](NC(=O)[C@H](C(C)C)NC(=O)CNC(=O)[C@H](CCCNC(=N)N)NC(=O)[C@H](CCCNC(=N)N)NC1=O)C(=O)N[C@@H](CCCNC(=N)N)C(=O)N2 [Peptide 1] (cyclo(GFCRCLCRRGVCRCICTR); disulfide 3-16, 5-14, 7-12)
- AUC (male, monkey, plasma, iv): 21900 ng·h/mL
- AUC(0-inf) (male, monkey, plasma, iv): 22100 ng·h/mL
- Cmax (male, monkey, plasma, iv): 5190 ng/mL
- MRT (male, monkey, plasma, iv): 4.71 h
- clearance (male, monkey, plasma, iv): 2.27 mL/min/kg
- Vd (male, monkey, plasma, iv, read-out: Vss): 0.639 L/kg
- λz: 0.204 h⁻¹
